Measurements published in ChEMBL document CHEMBL4428125, “8-Substituted 1,3-dimethyltetrahydropyrazino[2,1-f]purinediones: Water-soluble adenosine receptor antagonists and monoamine oxidase B inhibitors” (Bioorg Med Chem, 2016).

Columns and labels:
[1] = target: T1, Adenosine receptor A1 (Rattus norvegicus) (UniProt P25099); assay: Displacement of [3H]CCPA from A1 receptor in rat brain cortex membranes at 1.5 uM by liquid scintillation counting method; type: cell membranes
T1 sequence (whole entry): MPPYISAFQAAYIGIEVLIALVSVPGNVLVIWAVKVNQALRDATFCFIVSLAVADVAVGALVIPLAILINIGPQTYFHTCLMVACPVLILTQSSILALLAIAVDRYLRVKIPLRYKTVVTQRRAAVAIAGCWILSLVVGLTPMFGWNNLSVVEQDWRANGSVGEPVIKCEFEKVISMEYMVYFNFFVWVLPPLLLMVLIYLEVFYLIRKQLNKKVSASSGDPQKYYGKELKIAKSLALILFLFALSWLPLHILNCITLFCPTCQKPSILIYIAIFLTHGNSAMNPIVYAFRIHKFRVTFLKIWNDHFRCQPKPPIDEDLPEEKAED

[2] = target: T2, Adenosine receptor A3 (Homo sapiens) (UniProt P0DMS8); assay: Displacement of [3H]PSB-11 from human A3 receptor expressed in CHO cell membrane at 10 uM by liquid scintillation counting method relative to control relative to control; type: cell membranes
T2 sequence (whole entry): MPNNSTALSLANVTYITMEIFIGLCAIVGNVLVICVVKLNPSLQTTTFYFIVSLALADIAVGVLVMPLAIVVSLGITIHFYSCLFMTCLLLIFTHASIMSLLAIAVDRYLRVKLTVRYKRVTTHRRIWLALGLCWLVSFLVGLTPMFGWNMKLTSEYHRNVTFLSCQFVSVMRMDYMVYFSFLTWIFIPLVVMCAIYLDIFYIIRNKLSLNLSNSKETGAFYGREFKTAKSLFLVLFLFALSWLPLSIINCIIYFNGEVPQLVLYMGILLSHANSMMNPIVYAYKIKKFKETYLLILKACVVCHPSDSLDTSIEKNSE

[3] = target: T3, Amine oxidase [flavin-containing] B (Homo sapiens, UniProt P27338); assay: Inhibition of recombinant human MAO-B expressed in baculovirus infected BTI insect cells preincubated for 30 mins followed by addition of p-tyramine as substrate measured over 45 mins by Amplex Red MAO assay
T3 sequence (P27338 whole entry): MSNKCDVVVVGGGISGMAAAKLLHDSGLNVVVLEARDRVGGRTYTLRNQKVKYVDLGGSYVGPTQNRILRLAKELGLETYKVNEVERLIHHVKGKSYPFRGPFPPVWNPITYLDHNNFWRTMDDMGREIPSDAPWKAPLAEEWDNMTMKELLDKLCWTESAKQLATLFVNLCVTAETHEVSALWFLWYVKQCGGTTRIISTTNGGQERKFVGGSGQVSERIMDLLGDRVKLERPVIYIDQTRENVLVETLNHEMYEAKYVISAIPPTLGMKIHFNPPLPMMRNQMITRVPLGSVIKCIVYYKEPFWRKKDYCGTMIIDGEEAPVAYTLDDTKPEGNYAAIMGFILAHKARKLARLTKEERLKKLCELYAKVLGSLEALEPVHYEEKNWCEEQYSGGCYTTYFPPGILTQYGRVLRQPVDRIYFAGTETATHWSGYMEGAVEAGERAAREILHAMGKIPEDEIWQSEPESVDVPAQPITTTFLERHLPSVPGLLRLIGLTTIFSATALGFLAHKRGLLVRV

Adenosine receptor A3 = target: T4, Adenosine receptor A3 (Homo sapiens, UniProt P0DMS8); assay: Displacement of [3H]PSB-11 from human A3 receptor expressed in CHO cell membrane by liquid scintillation counting method relative to control; type: cell membranes
T4 sequence (P0DMS8 whole entry): T2 sequence (whole entry)

Adenosine receptor A2b = target: T5, Adenosine receptor A2b (Homo sapiens, UniProt P29275); assay: Displacement of [3H]PSB-603 from human A2B receptor expressed in CHO cell membrane; type: cell membranes
T5 sequence (P29275 whole entry): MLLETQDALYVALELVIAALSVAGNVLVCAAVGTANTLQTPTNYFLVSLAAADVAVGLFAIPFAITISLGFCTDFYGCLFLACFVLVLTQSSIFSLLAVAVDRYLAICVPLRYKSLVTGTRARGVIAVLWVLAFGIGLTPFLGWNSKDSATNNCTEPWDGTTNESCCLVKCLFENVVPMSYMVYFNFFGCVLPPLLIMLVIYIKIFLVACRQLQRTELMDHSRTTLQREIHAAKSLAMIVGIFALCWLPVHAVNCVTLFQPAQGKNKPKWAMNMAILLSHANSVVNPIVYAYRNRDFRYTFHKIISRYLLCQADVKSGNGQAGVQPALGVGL

[4] = target: T6, Adenosine receptor A2b (Homo sapiens) (UniProt P29275); assay: Displacement of [3H]PSB-603 from human A2B receptor expressed in CHO cell membrane at 1 uM relative to control; type: cell membranes
T6 sequence (whole entry): T5 sequence (P29275 whole entry)

[5] = target: T3, Amine oxidase [flavin-containing] B; assay: Inhibition of recombinant human MAO-B expressed in baculovirus infected BTI insect cells at 10 uM preincubated for 30 mins followed by addition of p-tyramine as substrate measured over 45 mins by Amplex Red MAO assay relative to control; conditions: 0.75 h
[6] = target: Adenosine receptor A2a (Rattus norvegicus) (UniProt P30543); assay: Displacement of [3H]MSX from A2A receptor in rat brain striatum membranes at 1 uM measured after 30 mins by liquid scintillation counting method relative to control; type: cell membranes
Sequence of Adenosine receptor A2a (Rattus norvegicus) (P30543 whole entry): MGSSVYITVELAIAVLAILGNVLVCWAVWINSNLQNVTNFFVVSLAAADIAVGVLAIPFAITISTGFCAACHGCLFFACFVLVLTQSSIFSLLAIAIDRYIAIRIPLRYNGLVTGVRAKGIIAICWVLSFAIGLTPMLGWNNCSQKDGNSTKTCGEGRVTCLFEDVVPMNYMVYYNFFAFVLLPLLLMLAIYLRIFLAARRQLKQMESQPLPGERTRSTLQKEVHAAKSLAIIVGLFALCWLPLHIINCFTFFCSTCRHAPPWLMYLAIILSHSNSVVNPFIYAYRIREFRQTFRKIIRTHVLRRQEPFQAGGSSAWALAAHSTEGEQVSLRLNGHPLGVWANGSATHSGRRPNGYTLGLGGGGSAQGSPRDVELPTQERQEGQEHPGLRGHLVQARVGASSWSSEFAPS

Adenosine receptor A1 = target: T7, Adenosine receptor A1 (Rattus norvegicus, UniProt P25099); assay: Displacement of [3H]CCPA from A1 receptor in rat brain cortex membranes by liquid scintillation counting method; type: cell membranes
T7 sequence (P25099 whole entry): T1 sequence (whole entry)

Adenosine receptor A2a = Adenosine receptor A2a (Rattus norvegicus, UniProt P30543); assay: Displacement of [3H]MSX from A2A receptor in rat brain striatum membranes measured after 30 mins by liquid scintillation counting method; type: cell membranes
Sequence of Adenosine receptor A2a (P30543 whole entry): as above

[7] = target: T8, Amine oxidase [flavin-containing] A (Homo sapiens, UniProt P21397); assay: Inhibition of recombinant human MAO-A expressed in baculovirus infected BTI insect cells at 10 uM preincubated for 30 mins followed by addition of p-tyramine as substrate measured over 45 mins by Amplex Red MAO assay relative to control; conditions: 0.75 h
T8 sequence (P21397 whole entry): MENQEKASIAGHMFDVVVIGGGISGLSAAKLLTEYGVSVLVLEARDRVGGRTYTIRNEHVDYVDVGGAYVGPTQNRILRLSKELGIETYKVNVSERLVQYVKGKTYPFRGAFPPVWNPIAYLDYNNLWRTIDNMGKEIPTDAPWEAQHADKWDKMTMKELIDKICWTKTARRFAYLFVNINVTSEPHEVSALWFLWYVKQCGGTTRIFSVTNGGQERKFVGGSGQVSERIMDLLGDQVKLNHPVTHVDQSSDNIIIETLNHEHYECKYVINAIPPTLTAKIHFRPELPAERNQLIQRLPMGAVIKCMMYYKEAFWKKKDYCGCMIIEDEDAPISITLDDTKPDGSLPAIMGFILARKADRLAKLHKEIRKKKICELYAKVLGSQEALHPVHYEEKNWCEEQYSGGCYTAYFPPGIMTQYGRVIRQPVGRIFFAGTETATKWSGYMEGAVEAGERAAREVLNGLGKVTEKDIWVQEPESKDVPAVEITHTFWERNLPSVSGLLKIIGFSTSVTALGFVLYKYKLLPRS

[8] = target: T8, Amine oxidase [flavin-containing] A; assay: Inhibition of recombinant human MAO-A expressed in baculovirus infected BTI insect cells preincubated for 30 mins followed by addition of p-tyramine as substrate measured over 45 mins by Amplex Red MAO assay

SMILES | Activity [1] [%] | Activity [2] [%] | IC50 [3] [µM] | Ki (Adenosine receptor A3) [µM] | Ki (Adenosine receptor A2b) [µM] | Activity [4] [%] | inhibition at 10 µM [5] [%] | Activity [6] [%] | Ki (Adenosine receptor A1) [µM] | Ki (Adenosine receptor A2a) [µM] | inhibition at 10 µM [7] [%] | IC50 [8] [µM]
COc1ccc(CCN2CCn3c(nc4c3c(=O)n(C)c(=O)n4C)C2)cc1OC | -2 | 43 | > 10 | > 10 | > 1 | 6 | 13 | 16 | > 1.5 | > 1 |  | 
Cn1c(=O)c2c(nc3n2CCN(c2ccccc2)C3)n(C)c1=O | 12 | 32 |  | > 10 | > 1 | 8 | 61 |  | > 1.5 | 3.83 | -1 | > 10
Cn1c(=O)c2c(nc3n2CCN(CCc2cccc(Cl)c2)C3)n(C)c1=O | 14 | 10 |  | > 10 | > 1 | 21 | 61 |  | > 1.5 | 1.31 | 13 | > 10
Cn1c(=O)c2c(nc3n2CCN(CC#Cc2ccc(Cl)c(Cl)c2)C3)n(C)c1=O | 29 | 35 | > 10 | > 10 | > 1 | 15 | 31 | 31 | > 1.5 | > 1 |  | 
Cn1c(=O)c2c(nc3n2CCN([C@@H]2CCc4ccccc42)C3)n(C)c1=O | 28 | 38 | 2.15 | > 10 | > 1 | 8 |  |  | > 1.5 | 5.08 |  | 
Cn1c(=O)c2c(nc3n2CCN(c2cccc(F)c2)C3)n(C)c1=O | 20 | 18 | 1.5 | > 10 | > 1 | 3 |  |  | > 1.5 | 2.92 | 8 | > 10
Cn1c(=O)c2c(nc3n2CCN(CCc2ccc(Cl)c(Cl)c2)C3)n(C)c1=O | 35 |  | 0.802 | 15 | > 1 | 11 |  |  | > 1.5 | 2.85 | 14 | > 10
Cn1c(=O)c2c(nc3n2CCN(c2cccc4ccccc24)C3)n(C)c1=O | 17 | 29 | 0.828 | > 10 | > 1 | 10 |  |  | > 1.5 | 2.94 | 16 | > 10
Cn1c(=O)c2c(nc3n2CCN(CCc2ccc(F)c(F)c2)C3)n(C)c1=O | 10 | 11 |  | > 10 | > 1 | 12 | 60 | 19 | > 1.5 | > 1 |  | 
Cn1c(=O)c2c(nc3n2CCN(CCc2ccccc2Cl)C3)n(C)c1=O | 32 | 43 | 0.723 | > 10 | > 1 | 13 |  |  | > 1.5 | 2.73 | 11 | > 10
CC(CN1CCn2c(nc3c2c(=O)n(C)c(=O)n3C)C1)c1ccccc1 (stereo not drawn) | 27 | 31 | > 10 | > 10 | > 1 | 11 | 11 |  | > 1.5 | 4.52 | 23 | > 10
Cn1c(=O)c2c(nc3n2CCN(CCc2cccc(C(F)(F)F)c2)C3)n(C)c1=O | 6 | 29 | 10 | > 10 | > 1 | 12 | 63 |  | > 1.5 | 2.58 |  | 
Cn1c(=O)c2c(nc3n2CCN(c2ccc(F)cc2)C3)n(C)c1=O | 4 | 24 | 2.23 | > 10 | > 1 | 9 |  |  | > 1.5 | 2.13 |  | 
Cn1c(=O)c2c(nc3n2CCN(CCc2ccccc2)C3)n(C)c1=O | 9 | 43 | > 10 | > 10 | > 1 | 11 | 39 |  | > 1.5 | 9.61 | -12 | > 10
Cn1c(=O)c2c(nc3n2CCN(CCc2c(Cl)cccc2Cl)C3)n(C)c1=O | 34 | 10 | 0.932 | > 10 | > 1 | 22 |  |  | > 1.5 | 3.05 |  | 
COc1cccc(N2CCn3c(nc4c3c(=O)n(C)c(=O)n4C)C2)c1 | 16 | 32 | 1.16 | > 10 | > 1 | 21 |  |  | > 1.5 | 1.01 | 3 | > 10
Cn1c(=O)c2c(nc3n2CCN(CCOc2ccc(Cl)c(Cl)c2)C3)n(C)c1=O |  | 36 | > 10 | > 10 | > 1 | 21 | 27 |  | 1.25 | 2.42 | 14 | > 10
